Drawing on PubChem BioAssay AID330 (DTP/NCI, 2004), this text covers T/C for 21 compounds.

For this experiment, the system named is P388 leukemia ip, CD2F1 mice, survival T/C. As to the kind of experiment: NCI In Vivo Anticancer Drug Screen. Data for tumor model P388 Leukemia (intraperitoneal) in CD2F1 (CDF1) mice. The note with it: endpoint: median survival time, higher = longer survival. Put shortly:
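Mice carrying the transplanted tumor received test compound or vehicle. Survival was recorded in each group, and the value is the treated-group measurement divided by that of the vehicle-treated control group.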

Where [1] appears, read: dose: 12.5 mg/kg/injection, schedule: Q01DX005 (ip), vehicle: Klucel (hydroxypropylcellulose) (HPC).
Setting [2] is: dose: 50.0 mg/kg/injection, schedule: Q01DX005 (ip), vehicle: Klucel (hydroxypropylcellulose) (HPC).
The mark [3] stands for this setting: dose: 50.0 mg/kg/injection, schedule: Q01DX009 (ip), vehicle: saline with Tween-80.
Setting [4] is: dose: 50.0 mg/kg/injection, schedule: Q01DX005 (ip), vehicle: saline with Tween-80.
Setting [5] is: dose: 100.0 mg/kg/injection, schedule: Q01DX005 (ip), vehicle: saline with Tween-80.
Setting [6] is: dose: 200.0 mg/kg/injection, schedule: Q01DX005 (ip), vehicle: saline with Tween-80.
Where [7] appears, read: dose: 60.0 mg/kg/injection, schedule: Q01DX005 (ip), vehicle: Klucel (hydroxypropylcellulose) (HPC).
Setting [8] is: dose: 120.0 mg/kg/injection, schedule: Q01DX005 (ip), vehicle: Klucel (hydroxypropylcellulose) (HPC).
[9] abbreviates: dose: 50.0 mg/kg/injection, schedule: Q01DX009 (ip), vehicle: saline.
Setting [10] is: dose: 100.0 mg/kg/injection, schedule: Q01DX009 (ip), vehicle: saline.
Where [11] appears, read: dose: 200.0 mg/kg/injection, schedule: Q01DX009 (ip), vehicle: saline.

Each structure is given as a SMILES string. Values joined by “and” are separate entries in the source; they are usually repeats but may differ in a detail not shown here. Equal entries are not always repeated. Toxic doses and inconclusive results are not listed.

On to `O=C(N/N=C/c1ccco1)C(=O)Nc1cccc(C(F)(F)F)c1`, for which the T/C runs as follows: under setting [1], 95 % of control; (dose: 25.0 mg/kg/injection, schedule: Q01DX005 (ip), vehicle: Klucel (hydroxypropylcellulose) (HPC)) 89 % of control; under setting [2], 88 % of control and 95 % of control.

For the compound `C=C1C(=O)OC2CC3(CO3)C3CC(OC(C)=O)C(=C)C3(O)CC12` (stereo not drawn), the T/C is 99 % of control (dose: 8.0 mg/kg/injection, schedule: Q01DX009 (ip), vehicle: Klucel (hydroxypropylcellulose) (HPC)); 116 % of control (dose: 16.0 mg/kg/injection, schedule: Q01DX009 (ip), vehicle: Klucel (hydroxypropylcellulose) (HPC)); 119 % of control (dose: 32.0 mg/kg/injection, schedule: Q01DX009 (ip), vehicle: Klucel (hydroxypropylcellulose) (HPC)); 114 % of control (dose: 64.0 mg/kg/injection, schedule: Q01DX009 (ip), vehicle: Klucel (hydroxypropylcellulose) (HPC)).

As for `CC1OCOC(CO)C(O)C1O` (stereo not drawn), the T/C (dose: 50.0 mg/kg/injection, schedule: Q01DX005 (ip), vehicle: saline) is 101 % of control; the T/C (dose: 100.0 mg/kg/injection, schedule: Q01DX005 (ip), vehicle: saline) is 105 % of control; the T/C (dose: 200.0 mg/kg/injection, schedule: Q01DX005 (ip), vehicle: saline) is 105 % of control.

As for `O=[N+]([O-])c1ccc(Cl)nc1`, the T/C (dose: 22.0 mg/kg/injection, schedule: Q01DX009 (ip), vehicle: saline with Tween-80) was 103 % of control; the T/C (dose: 33.0 mg/kg/injection, schedule: Q01DX009 (ip), vehicle: saline with Tween-80) was 97 % of control; the T/C under setting [3] is 91 % of control; the T/C (dose: 75.0 mg/kg/injection, schedule: Q01DX009 (ip), vehicle: saline with Tween-80) was 99 % of control; the T/C (dose: 100.0 mg/kg/injection, schedule: Q04DX003 (ip), vehicle: saline sonified) is 100 % of control; the T/C (dose: 200.0 mg/kg/injection, schedule: Q04DX003 (ip), vehicle: saline sonified) was 95 % of control. The T/C (dose: 400.0 mg/kg/injection, schedule: Q04DX003 (ip), vehicle: saline sonified) is 90 % of control.

On to `COC(=O)NC1(NC(=O)OC)NC(=O)c2cc(OC)c(OC)c(OC)c2N1`, for which the T/C reads like this: (dose: 25.0 mg/kg/injection, schedule: Q01DX005 (ip), vehicle: saline + alcohol) 102 % of control; (dose: 50.0 mg/kg/injection, schedule: Q01DX005 (ip), vehicle: saline + alcohol) 98 % of control; (dose: 100.0 mg/kg/injection, schedule: Q01DX005 (ip), vehicle: saline + alcohol) 100 % of control; (dose: 200.0 mg/kg/injection, schedule: Q01DX005 (ip), vehicle: saline + alcohol) 93 % of control.

For the compound `Cc1cnc(=O)[nH]c1NO`, the T/C is 102 % of control (dose: 100.0 mg/kg/injection, schedule: Q04DX002 (ip), vehicle: Klucel (hydroxypropylcellulose) (HPC)); 100 % of control (dose: 200.0 mg/kg/injection, schedule: Q04DX002 (ip), vehicle: Klucel (hydroxypropylcellulose) (HPC)); 98 % of control (dose: 400.0 mg/kg/injection, schedule: Q04DX002 (ip), vehicle: Klucel (hydroxypropylcellulose) (HPC)).

As to `CC(/C=C/C1OC(=O)C=CC1C)=C\C(C)C/C=C/C(C)=C/C(C)C(=O)C(C)C(O)C(C)C/C(C)=C/C(=O)O` (stereo not drawn), the T/C by setting is: (dose: 2.5 micrograms/kg/injection, schedule: Q01DX005 (ip), vehicle: saline + alcohol) 101 % of control; (dose: 5.0 micrograms/kg/injection, schedule: Q01DX005 (ip), vehicle: saline + alcohol) 99 % of control; (dose: 10.0 micrograms/kg/injection, schedule: Q01DX005 (ip), vehicle: saline + alcohol) 106 % of control; (dose: 20.0 micrograms/kg/injection, schedule: Q01DX005 (ip), vehicle: saline + alcohol) 100 % of control; (dose: 100.0 micrograms/kg/injection, schedule: Q01DX005 (ip), vehicle: alcohol) 150 % of control; (dose: 200.0 micrograms/kg/injection, schedule: Q01DX005 (ip), vehicle: alcohol) 159 % of control.

`CNC(=O)OCc1c(COC(=O)NC)c(-c2ccco2)n2c1CCC2`: the T/C is 100 % of control (dose: 3.75 mg/kg/injection, schedule: Q01DX005 (ip), vehicle: saline); 101 % of control (dose: 7.5 mg/kg/injection, schedule: Q01DX005 (ip), vehicle: saline); 120 % of control (dose: 15.0 mg/kg/injection, schedule: Q01DX005 (ip), vehicle: saline).

As for `CC(C)Sc1nc(NC(=O)N(CCCl)N=O)cc(=O)[nH]1`, under setting [1], the T/C was 152 % of control.

Turning to `C=CCOC1CC(C)(O)Cc2cc3c(c(O)c21)C(=O)c1c(O)cc2c(c1C3=O)OC1OC2(C)C(O)C(N(C)C)C1O` (stereo not drawn), the T/C (dose: 1.25 mg/kg/injection, schedule: Q01DX009 (ip), vehicle: other) was 114 % of control; the T/C (dose: 2.5 mg/kg/injection, schedule: Q01DX009 (ip), vehicle: other) was 120 % of control; the T/C (dose: 10.0 mg/kg/injection, schedule: Q01DX009 (ip), vehicle: other) was 123 % of control.

In the case of `COc1ccc(CCNC(=O)Nc2ccc(C(C)(C)C)cc2)cc1OC`, the T/C was 101 % of control under setting [4], 97 % of control under setting [5] and 101 % of control under setting [6].

As to `CCOC(=O)CNC(=O)NC(Cc1ccccc1)C(=O)OCC` (stereo not drawn), the T/C under setting [4] was 107 % of control and the T/C under setting [5] was 97 % of control.

For `CC(=O)NNC(=O)NCCCCCCNC(=O)NNC(C)=O`, the T/C is 101 % of control under setting [2]; 97 % of control (dose: 100.0 mg/kg/injection, schedule: Q01DX005 (ip), vehicle: Klucel (hydroxypropylcellulose) (HPC)); 92 % of control (dose: 200.0 mg/kg/injection, schedule: Q01DX005 (ip), vehicle: Klucel (hydroxypropylcellulose) (HPC)); 94 % of control (dose: 400.0 mg/kg/injection, schedule: Q01DX005 (ip), vehicle: Klucel (hydroxypropylcellulose) (HPC)).

`CC(C)(C)n1nc(C2CC2)c(Br)c1NC(=O)c1ccccc1`: the T/C is, setting by setting: (dose: 30.0 mg/kg/injection, schedule: Q01DX005 (ip), vehicle: Klucel (hydroxypropylcellulose) (HPC)) 107 % of control; under setting [7], 109 % of control; under setting [8], 107 % of control; (dose: 240.0 mg/kg/injection, schedule: Q01DX005 (ip), vehicle: Klucel (hydroxypropylcellulose) (HPC)) 98 % of control.

Consider `C[N+](C)(C)CC(=O)O`, for which the T/C runs as follows: (dose: 10.0 mg/kg/injection, schedule: Q01DX005 (ip), vehicle: saline) 104 % of control; (dose: 20.0 mg/kg/injection, schedule: Q01DX005 (ip), vehicle: saline) 99 % of control; (dose: 31.25 mg/kg/injection, schedule: Q01DX005 (ip), vehicle: saline) 100 % of control; (dose: 40.0 mg/kg/injection, schedule: Q01DX005 (ip), vehicle: saline) 98 % of control; (dose: 62.5 mg/kg/injection, schedule: Q01DX005 (ip), vehicle: saline) 105 % of control; (dose: 125.0 mg/kg/injection, schedule: Q01DX005 (ip), vehicle: saline) 91 % of control. Further, where the note is “dose: 250.0 mg/kg/injection, schedule: Q01DX005 (ip), vehicle: saline”, the T/C was 87 % of control.

Regarding `O=C1NCCCC1(c1ccccc1)c1ccccc1`, the T/C runs as follows: under setting [9], 98 % of control; under setting [10], 102 % of control; under setting [11], 97 % of control.

In the case of `NCc1c(Cl)c(Cl)c(Cl)c(CN)c1Cl`, the T/C reads like this: (dose: 50.0 mg/kg/injection, schedule: Q04DX003 (ip), vehicle: saline with Tween-80) 100 % of control; (dose: 100.0 mg/kg/injection, schedule: Q04DX003 (ip), vehicle: saline with Tween-80) 100 % of control; (dose: 200.0 mg/kg/injection, schedule: Q04DX003 (ip), vehicle: saline with Tween-80) 105 % of control.

Consider `CS[P+]1(C)C=C(N2CCOCC2)CC1` (stereo not drawn), for which the T/C is 101 % of control under setting [9], 96 % of control under setting [10] and 96 % of control under setting [11].

For `O=C(CCCC(=O)Nc1ccc2[nH]c3ccccc3c(=O)c2c1)Nc1ccc2[nH]c3ccccc3c(=O)c2c1`, the T/C is, setting by setting: under setting [7], 92 % of control; under setting [8], 94 % of control.

Regarding `NC(CCSCc1ccccc1)P(=O)(O)O` (stereo not drawn), the T/C runs as follows: under setting [4], 100 % of control; under setting [5], 97 % of control; under setting [6], 92 % of control.

Consider `CCCCNCCC(O)c1cc2ccc(C(F)(F)F)cc2c2cc(C(F)(F)F)ccc12` (stereo not drawn), for which the T/C was 86 % of control under setting [3] and 91 % of control (dose: 100.0 mg/kg/injection, schedule: Q01DX009 (ip), vehicle: saline with Tween-80).
